Converted amounts (≈) assume the structure as drawn.
Experiments:
[1] = system: Enterococcus faecium; test: Antibacterial activity against Enterococcus faecium after 24 hrs by broth microdilution method; assay type: functional; conditions: read-out: MIC
[2] = Toxicity assessed as hemolysis in erythrocytes at 800 mg/L; assay type: cell-based, Erythrocyte; conditions: human, read-out: Activity
[3] = system: Streptococcus pyogenes; test: Antibacterial activity against Streptococcus pyogenes C203 after 24 hrs by broth microdilution method; assay type: functional; conditions: C203, 24 h, read-out: MIC
[4] = system: Enterococcus faecium; test: Antibacterial activity against vancomycin A-resistant Enterococcus faecium clinical isolate in presence of 30% bovine serum after 24 hrs by broth microdilution method; assay type: functional
[5] = Toxicity assessed as hemolysis in erythrocytes at 400 mg/L; assay type: cell-based, Erythrocyte; conditions: human, read-out: Activity
[6] = system: Enterococcus faecalis; test: Antibacterial activity against Enterococcus faecalis after 24 hrs by broth microdilution method; assay type: functional; conditions: read-out: MIC
[7] = system: Enterococcus faecalis; test: Antibacterial activity against vancomycin-resistant Enterococcus faecalis in presence of 30% bovine serum after 24 hrs by broth microdilution method; assay type: functional
[8] = Toxicity assessed as hemolysis in erythrocytes at 90 mg/L; assay type: cell-based, Erythrocyte; conditions: human, erythrocytes; read-out: Activity
[9] = Toxicity assessed as hemolysis in erythrocytes at 200 mg/L; assay type: cell-based, Erythrocyte; conditions: human, read-out: Activity
[10] = system: Staphylococcus aureus; test: Antibacterial activity against Staphylococcus aureus Smith in presence of 30% bovine serum after 24 hrs by broth microdilution method; assay type: functional
[11] = system: Escherichia coli; test: Antibacterial activity against Escherichia coli SKF-12140 after 24 hrs by broth microdilution method; assay type: functional; conditions: read-out: MIC
[12] = system: Enterococcus faecium; test: Antibacterial activity against vancomycin A-resistant Enterococcus faecium clinical isolate after 24 hrs by broth microdilution method; assay type: functional; conditions: read-out: MIC
[13] = system: Staphylococcus aureus; test: Antibacterial activity against Staphylococcus aureus Smith after 24 hrs by broth microdilution method; assay type: functional; conditions: read-out: MIC
[14] = system: Enterococcus faecalis; test: Antibacterial activity against vancomycin A-resistant Enterococcus faecalis after 24 hrs by broth microdilution method; assay type: functional; conditions: read-out: MIC
[15] = system: Staphylococcus aureus; test: Antibacterial activity against methicillin-resistant and vancomycin-intermediate resistant Staphylococcus aureus clinical isolate after 24 hrs by broth microdilution method; assay type: functional; conditions: read-out: MIC
[16] = system: Staphylococcus aureus; test: Antibacterial activity against vancomycin-intermediate resistant Staphylococcus aureus clinical isolate after 24 hrs by broth microdilution method; assay type: functional
[17] = system: Staphylococcus aureus; test: Antibacterial activity against methicillin-resistant Staphylococcus aureus clinical isolate after 24 hrs by broth microdilution method; assay type: functional; conditions: read-out: MIC
[18] = Toxicity assessed as hemolysis in erythrocytes at 180 mg/L; assay type: cell-based, Erythrocyte; conditions: human, erythrocytes; read-out: Activity
[19] = system: Staphylococcus aureus; test: Antibacterial activity against vancomycin-intermediate resistant Staphylococcus aureus clinical isolate in presence of 30% bovine serum after 24 hrs by broth microdilution method; assay type: functional
[20] = system: Candida albicans; test: Antifungal activity against Candida albicans SKF-2270 after 24 hrs by broth microdilution method; assay type: functional; conditions: read-out: MIC
[21] = Toxicity assessed as hemolysis in erythrocytes at 100 mg/L; assay type: cell-based, Erythrocyte; conditions: human, read-out: Activity
[22] = Toxicity assessed as hemolysis in erythrocytes at 1600 mg/L; assay type: cell-based, Erythrocyte; conditions: human, read-out: Activity

| SMILES | MIC [1] [µg/mL] | hemolysis at 800 mg/L [2] [%] | MIC [3] [µg/mL] | MIC [4] [µg/mL] | hemolysis at 400 mg/L [5] [%] | MIC [6] [µg/mL] | MIC [7] [µg/mL] | hemolysis at 200 mg/L [9] [%] | MIC [10] [µg/mL] | MIC [11] [µg/mL] | MIC [12] [µg/mL] | MIC [13] [µg/mL] | MIC [14] [µg/mL] | MIC [15] [µg/mL] | MIC [16] [µg/mL] | MIC [17] [µg/mL] | MIC [19] [µg/mL] | MIC [20] [µg/mL] | hemolysis at 100 mg/L [21] [%] | hemolysis at 1600 mg/L [22] [%] | also measured |
| --- | --- | --- | --- | --- | --- | --- | --- | --- | --- | --- | --- | --- | --- | --- | --- | --- | --- | --- | --- | --- | --- |
| CC(C)C[C@@H]1NC(=O)CNC(=O)[C@H](c2ccc(O)cc2)NC(=O)[C@@H]([C@@H](C)O)NC(=O)[C@H](c2ccc(O[C@H]3O[C@H](CO)[C@@H](O)[C@H](O)[C@@H]3O[C@H]3O[C@H](CO)[C@@H](O)[C@H](O)[C@@H]3O)cc2)NC(=O)[C@@H](CCCN)NC(=O)[C@H](Cc2ccccc2)NC(=O)[C@H]([C@@H](C)O)NC(=O)[C@@H](c2ccc(O)cc2)NC(=O)[C@H](c2ccc(O)cc2)NC(=O)[C@@H](C(C)C)NC(=O)[C@@H](CCCN)NC(=O)[C@@H](c2ccc(O)cc2)NC(=O)[C@@H](CNC(=O)[C@H](CC(N)=O)NC(=O)Cc2cccc3ccccc23)[C@@H](C(N)=O)OC(=O)[C@H](c2ccc(O)c(Cl)c2)NC(=O)[C@@H](C)NC1=O.Cl | 0.125 | 98 | ≤ 0.06 | 0.5 | 60 | ≤ 0.06 | 0.25 | 30 | 0.25 | > 128 | ≤ 0.06 | ≤ 0.06 | ≤ 0.06 | 2 | 0.25 | ≤ 0.06 | 1 | > 128 | – | – | hemolysis at 90 mg/L [8]: 15%; hemolysis at 180 mg/L [18]: 28% |
| CC/C=C/C=C\CC(=O)N[C@@H](CC(N)=O)C(=O)NC[C@@H]1C(=O)N[C@H](c2ccc(O)cc2)C(=O)N[C@H](CCCN)C(=O)N[C@H](C(C)C)C(=O)N[C@@H](c2ccc(O)cc2)C(=O)N[C@H](c2ccc(O)cc2)C(=O)N[C@@H]([C@@H](C)O)C(=O)N[C@@H](Cc2ccccc2)C(=O)N[C@H](CCCN)C(=O)N[C@@H](c2ccc(O[C@H]3O[C@H](CO)[C@@H](O)[C@H](O)[C@@H]3O[C@H]3O[C@H](CO)[C@@H](O)[C@H](O)[C@@H]3O)cc2)C(=O)N[C@H]([C@@H](C)O)C(=O)N[C@@H](c2ccc(O)cc2)C(=O)NCC(=O)N[C@@H](CC(C)C)C(=O)N[C@H](C)C(=O)N[C@@H](c2ccc(O)c(Cl)c2)C(=O)O[C@@H]1C(N)=O | 0.5 (≈ 0.196 µM) | 96 | ≤ 0.125 | 1 | 51 | 0.5 (≈ 0.196 µM) | 0.5 | 45 | 0.5 | > 128 | 0.25 (≈ 0.098 µM) | 0.25 (≈ 0.098 µM) | 0.25 (≈ 0.098 µM) | 2 (≈ 0.784 µM) | 1 (≈ 0.392 µM) | 0.25 (≈ 0.098 µM) | 2 | > 128 | 38 | – | – |
| Cc1ccccc1CC(=O)N[C@@H](CC(N)=O)C(=O)NC[C@@H]1C(=O)N[C@H](c2ccc(O)cc2)C(=O)N[C@H](CCCN)C(=O)N[C@H](C(C)C)C(=O)N[C@@H](c2ccc(O)cc2)C(=O)N[C@H](c2ccc(O)cc2)C(=O)N[C@@H]([C@@H](C)O)C(=O)N[C@@H](Cc2ccccc2)C(=O)N[C@H](CCCN)C(=O)N[C@@H](c2ccc(O[C@H]3O[C@H](CO)[C@@H](O)[C@H](O)[C@@H]3O[C@H]3O[C@H](CO)[C@@H](O)[C@H](O)[C@@H]3O)cc2)C(=O)N[C@H]([C@@H](C)O)C(=O)N[C@@H](c2ccc(O)cc2)C(=O)NCC(=O)N[C@@H](CC(C)C)C(=O)N[C@H](C)C(=O)N[C@@H](c2ccc(O)c(Cl)c2)C(=O)O[C@@H]1C(N)=O | 0.5 (≈ 0.195 µM) | 2 | ≤ 0.125 | 1 | 1 | 0.5 (≈ 0.195 µM) | 0.5 | 1 | 0.25 | > 128 | 0.5 (≈ 0.195 µM) | ≤ 0.125 | 0.25 (≈ 0.0976 µM) | 2 (≈ 0.781 µM) | 1 (≈ 0.39 µM) | ≤ 0.125 | 1 | > 128 | 1 | 5 | – |
| Cc1ccccc1C(=O)N[C@@H](CC(N)=O)C(=O)NC[C@@H]1C(=O)N[C@H](c2ccc(O)cc2)C(=O)N[C@H](CCCN)C(=O)N[C@H](C(C)C)C(=O)N[C@@H](c2ccc(O)cc2)C(=O)N[C@H](c2ccc(O)cc2)C(=O)N[C@@H]([C@@H](C)O)C(=O)N[C@@H](Cc2ccccc2)C(=O)N[C@H](CCCN)C(=O)N[C@@H](c2ccc(O[C@H]3O[C@H](CO)[C@@H](O)[C@H](O)[C@@H]3O[C@H]3O[C@H](CO)[C@@H](O)[C@H](O)[C@@H]3O)cc2)C(=O)N[C@H]([C@@H](C)O)C(=O)N[C@@H](c2ccc(O)cc2)C(=O)NCC(=O)N[C@@H](CC(C)C)C(=O)N[C@H](C)C(=O)N[C@@H](c2ccc(O)c(Cl)c2)C(=O)O[C@@H]1C(N)=O | 2 (≈ 0.785 µM) | 94 | ≤ 0.125 | ≤ 0.125 | 83 | 2 (≈ 0.785 µM) | 2 | 17 | 1 | > 128 | 4 (≈ 1.57 µM) | 1 (≈ 0.392 µM) | 2 (≈ 0.785 µM) | 8 (≈ 3.14 µM) | 8 (≈ 3.14 µM) | 1 (≈ 0.392 µM) | 4 | > 128 | 2 | 93 | – |
| CCCCC(CC)C(=O)N[C@@H](CC(N)=O)C(=O)NC[C@@H]1C(=O)N[C@H](c2ccc(O)cc2)C(=O)N[C@H](CCCN)C(=O)N[C@H](C(C)C)C(=O)N[C@@H](c2ccc(O)cc2)C(=O)N[C@H](c2ccc(O)cc2)C(=O)N[C@@H]([C@@H](C)O)C(=O)N[C@@H](Cc2ccccc2)C(=O)N[C@H](CCCN)C(=O)N[C@@H](c2ccc(O[C@H]3O[C@H](CO)[C@@H](O)[C@H](O)[C@@H]3O[C@H]3O[C@H](CO)[C@@H](O)[C@H](O)[C@@H]3O)cc2)C(=O)N[C@H]([C@@H](C)O)C(=O)N[C@@H](c2ccc(O)cc2)C(=O)NCC(=O)N[C@@H](CC(C)C)C(=O)N[C@H](C)C(=O)N[C@@H](c2ccc(O)c(Cl)c2)C(=O)O[C@@H]1C(N)=O (some centres undefined) | 0.5 (≈ 0.196 µM) | 73 | ≤ 0.125 | 1 | 8 | 0.5 (≈ 0.196 µM) | 1 | 4 | 0.5 | > 128 | 0.5 (≈ 0.196 µM) | 0.25 (≈ 0.0978 µM) | 0.25 (≈ 0.0978 µM) | 2 (≈ 0.782 µM) | 1 (≈ 0.391 µM) | 0.25 (≈ 0.0978 µM) | 2 | > 128 | 0 | 83 | – |

Source: ChEMBL document CHEMBL1145390, “Synthesis and preliminary biological characterization of new semisynthetic derivatives of ramoplanin” (J Med Chem, 2007)
